Where two headings read alike, the source gives them in different places.
Assays:
[1] = molecular target: T1, human topoisomerase I (Homo sapiens, UniProt P11387); details: relative topoisomerase I inhibition levels, previously determined, six levels (0 - 5, +++++ = 5); cited from earlier work
T1 sequence (P11387 1-765): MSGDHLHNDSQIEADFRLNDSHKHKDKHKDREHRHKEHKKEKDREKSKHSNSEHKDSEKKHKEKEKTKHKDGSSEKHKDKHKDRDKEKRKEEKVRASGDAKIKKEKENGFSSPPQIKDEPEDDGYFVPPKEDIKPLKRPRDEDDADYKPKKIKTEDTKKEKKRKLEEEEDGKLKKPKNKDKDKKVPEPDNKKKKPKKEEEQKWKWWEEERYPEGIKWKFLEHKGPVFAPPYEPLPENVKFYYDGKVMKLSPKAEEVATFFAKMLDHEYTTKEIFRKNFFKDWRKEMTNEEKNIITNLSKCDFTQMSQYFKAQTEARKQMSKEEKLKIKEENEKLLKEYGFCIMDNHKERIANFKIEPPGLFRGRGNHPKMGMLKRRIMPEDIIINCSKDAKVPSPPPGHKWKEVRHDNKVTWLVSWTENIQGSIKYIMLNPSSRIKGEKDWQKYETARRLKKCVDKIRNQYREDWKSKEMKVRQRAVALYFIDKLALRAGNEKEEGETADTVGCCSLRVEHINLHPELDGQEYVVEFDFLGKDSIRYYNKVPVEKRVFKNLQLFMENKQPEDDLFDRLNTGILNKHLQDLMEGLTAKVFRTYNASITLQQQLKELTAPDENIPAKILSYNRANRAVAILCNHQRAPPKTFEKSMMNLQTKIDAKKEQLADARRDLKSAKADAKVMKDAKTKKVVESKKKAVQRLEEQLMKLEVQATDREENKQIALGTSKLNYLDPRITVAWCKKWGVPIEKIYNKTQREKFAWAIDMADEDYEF

[2] = tested on: MycG4 (MycPu22 DNA); assay: 1H NMR titration of MycPu22 DNA; type: binding, human; details: 150 μM DNA, 25° C., pH 7, 100 mM K+
Method in brief: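 Oligonucleotide at 150 (so in the source) in 75 mM KCl, 25 mM phosphate pH 7.0, 90/10% H2O/D2O, heat-annealed at 95 °C then slowly cooled to form G4. Compound titrated at 0.5 to 4 equivalents and 1H spectra recorded at 25 °C on a 500 MHz instrument with Watergate water suppression.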

[3] = tested on: NCI-60 cancer cell lines; assay: NCI-60 cancer cell line drug screen (GI50, MGM); type: cell-based, human; details: Homo sapiens; for GI50: read-out: Antiproliferative Activities [GI50 (μM)]
Method: Cancer cells were incubated with the test compounds at five concentrations ranging from 100 μM to 10 nM for 48 h. […] The approximate average of GI50 values across the entire panel of NCI-60 cancer cell lines for each compound was recorded as the MGM value.

[4] = tested on: MYC protein expression in MCF-7 breast cancer cells; assay: Western blotting of MYC protein level in MCF-7 cells; type: cell-based, human
Method in brief: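 Immunoblotting with ECL detection quantified MYC, with GAPDH (1:2000) as reference and anti-MYC at 1:1000.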

## CNCCCn1c2c(c3ccc(F)cc3c1=O)C(=O)c1cc(OC)cnc1-2 [Compound 6]
[1]
  Top1 Inhibiton: + (weak inhibition, +, MYC expression inhibited at 4.0 μM)
[2]
  binding to MycG4 by 1H NMR titration: more specific binding to MycG4
[3]; 786-0, Renal Cancer, 786-0
  GI50: 0.2 µM
[3]; A498, Renal Cancer, A498
  GI50: 0.37 µM
[3]; A549, Non-Small Cell Lung Cancer, A549/ATCC
  GI50: 0.11 µM
[3]; ACHN, Renal Cancer, ACHN
  GI50: 0.12 µM
[3]; BT-549, Breast Cancer, BT-549
  GI50: 0.58 µM
[3]; CCRF-CEM, Leukemia, CCRF-CEM
  GI50: 0.26 µM
[3]; COLO 205, Colon Cancer, COLO 205
  GI50: 0.07 µM
[3]; DU-145, Prostate Cancer, DU-145
  GI50: 0.2 µM
[3]; EKVX, Non-Small Cell Lung Cancer, EKVX
  GI50: 0.3 µM
[3]; HCC 2998, Colon Cancer, HCC-2998
  GI50: 1.15 µM
[3]; HCT-15, Colon Cancer, HCT-15
  GI50: 0.25 µM
[3]; HCT-116, Colon Cancer, HCT-116
  GI50: 0.14 µM
[3]; HL-60, Leukemia, HL-60(TB)
  GI50: 0.22 µM
[3]; HOP-62, Non-Small Cell Lung Cancer, HOP-62
  GI50: 0.14 µM
[3]; HOP-92, Non-Small Cell Lung Cancer, HOP-92
  GI50: 0.37 µM
[3]; HT-29, Colon Cancer, HT29
  GI50: 0.15 µM
[3]; Hs-578T, Breast Cancer, HS 578T
  GI50: 2.24 µM
[3]; IGROV-1, Ovarian Cancer, IGROV1
  GI50: 0.32 µM
[3]; K562, Leukemia, K-562
  GI50: 0.17 µM
[3]; KM12, Colon Cancer, KM12
  GI50: 0.24 µM
[3]; LOX IMVI, Melanoma, LOX IMVI
  GI50: 0.14 µM
[3]; Leukemia, SR
  GI50: 0.12 µM
[3]; MCF7, Breast Cancer, MCF7
  GI50: 0.03 µM
[3]; MDA-MB-231, Breast Cancer, MDA-MB-231/ATCC
  GI50: 0.7 µM
[3]; MDA-MB-435, Melanoma, MDA-MB-435
  GI50: 0.47 µM
[3]; MDA-MB-468, Breast Cancer, MDA-MB-468
  GI50: 0.22 µM
[3]; MOLT-4, Leukemia, MOLT-4
  GI50: 0.04 µM
[3]; Malme-3M, Melanoma, MALME-3M
  GI50: 0.32 µM
[3]; Melanoma, M14
  GI50: 0.31 µM
[3]; NCI-H23, Non-Small Cell Lung Cancer, NCI-H23
  GI50: 0.31 µM
[3]; NCI-H226, Non-Small Cell Lung Cancer, NCI-H226
  GI50: 0.16 µM
[3]; NCI-H322M, Non-Small Cell Lung Cancer, NCI-H322M
  GI50: 0.45 µM
[3]; NCI-H460, Non-Small Cell Lung Cancer, NCI-H460
  GI50: 0.05 µM
[3]; NCI-H522, Non-Small Cell Lung Cancer, NCI-H522
  GI50: 0.06 µM
[3]; OVCAR-3, Ovarian Cancer, OVCAR-3
  GI50: 0.26 µM
[3]; OVCAR-4, Ovarian Cancer, OVCAR-4
  GI50: 0.42 µM
[3]; OVCAR-5, Ovarian Cancer, OVCAR-5
  GI50: 0.35 µM
[3]; OVCAR-8, Ovarian Cancer, OVCAR-8
  GI50: 0.19 µM
[3]; Ovarian Cancer, NCl/ADR-RES
  GI50: 0.43 µM
[3]; Prostate Cancer, PC-3
  GI50: 0.37 µM
[3]; RPMI-8226, Leukemia, RPMI-8226
  GI50: 0.2 µM
[3]; RXF 393, Renal Cancer, RXF 393
  GI50: 0.32 µM
[3]; Renal Cancer, U0-31
  GI50: 0.13 µM
[3]; SF-268, CNS Cancer, SF-268
  GI50: 0.38 µM
[3]; SF-295, CNS Cancer, SF-295
  GI50: 0.19 µM
[3]; SF-539, CNS Cancer, SF-539
  GI50: 0.37 µM
[3]; SK-MEL-2, Melanoma, SK-MEL-2
  GI50: 1.6 µM
[3]; SK-MEL-5, Melanoma, SK-MEL-5
  GI50: 0.31 µM
[3]; SK-MEL-28, Melanoma, SK-MEL-28
  GI50: 1.44 µM
[3]; SK-OV-3, Ovarian Cancer, SK-OV-3
  GI50: 0.23 µM
[3]; SN12C, Renal Cancer, SN12C
  GI50: 0.21 µM
[3]; SNB-19, CNS Cancer, SNB-19
  GI50: 0.22 µM
[3]; SNB-75, CNS Cancer, SNB-75
  GI50: 0.25 µM
[3]; SW-620, Colon Cancer, SW-620
  GI50: 0.18 µM
[3]; T47D, Breast Cancer, T-47D
  GI50: 0.16 µM
[3]; TK-10, Renal Cancer, TK-10
  GI50: 0.33 µM
[3]; U-251, CNS Cancer, U251
  GI50: 0.11 µM
[3]; UACC-62, Melanoma, UACC-62
  GI50: 0.61 µM
[3]; UACC-257, Melanoma, UACC-257
  GI50: 0.49 µM
[3]; average of GI50 values across the entire panel of NCI-60 cancer cell lines
  mean GI50 across NCI-60 panel (MGM): 240 nM
[4]; Homo sapiens, MCF7, western blotting, MCF-7 cells, 0.5, 1, 2, and 4 μM, 24 hours, read-out: MYC Inhibition
  minimal effective concentration: 0.5 to 1 µM
[4]; MCF-7, 0.5, 1, 2, and 4 μM, 24 h
  MYC-inhibitory effect (MYC protein, western blot): clear MYC-inhibitory effect

— US20210382058A1, “PATIENT SELECTION FOR TREATMENT OF MYC POSITIVE CANCERS WITH INDENOISOQUINOLINES” (Purdue Research Foundation, priority 2020, published 2021)
